Experimental data reported in patent publication US20180354909A1, “SUBSTITUTED BENZIMIDAZOLIUM, PYRIDO-IMIDAZOLIUM, OR PYRAZINO-IMIDAZOLIUM COMPOUNDS AS CHEMOTHERAPEUTICS” (The Board of Regents of the University of Texas System, priority 2015, published 2018).
“Also recorded” adds a separate entry of the source.

Tests used:
[1] = In vitro plasma half-life; format: in vitro ADME; settings: mouse, plasma, murine plasma, read-out: Plasma T1/2 (converted)
Experimental: 12M11 (2 μM final concentration) was incubated with murine plasma and saline for 0-1440 minutes. Reactions were quenched with 200 μl (1:2) of methanol containing 0.1% formic acid and 200 ng/ml IS (IS final conc.=100 ng/mL). Samples were vortexed for 15 seconds, incubated at RT for 10 minutes and spun for 5 minutes at 13.2K rpm. Supernatant ([…]) was then transferred to an eppendorf tube and spun in a table top, chilled centrifuge for 5 minutes at 13.2K rpm. Supernatant (800 μL) was transferred to an HPLC vial (w/out insert). Analyzed by Qtrap 3200 mass spectrometer. These methods were used data obtained in the FIGS. 22C and 22F.

MEF [2] = assay: Cytotox testing (CellTiter-Glo) in MEF; format: cell-based, mouse
Experimental: (§1) Mut6 tumor cells were cultured in DMEM/F12 media supplemented by EGF (10 ng/mL), basic FGF (10 ng/mL), heparin (4 ug/mL), glucose (total 21 mM), NaHCO3 (113 μg/mL), Hepes (119 μg/mL), glutamine (2 mM), sodium pyruvate (1 mM), N2 supplement (ThermoFisher Gibco 17502-048, 100×, at 100-fold dilution), B27 supplement (ThermoFisher Gibco 12587-010, 50×, at 100-fold dilution), and penicillin/streptomycin (ThermoFisher, final 1%). Cells were maintained in Ultra-low attachment plate (Corning) as sphere-forming cells. For ATP assays and protein/RNA isolation, cells were plated into 96-well plates or 6-well plated that were coated with poly-lysine (Sigma P6407, 10 μg/mL in PBS, 4 hr at 37° C.) and laminin (ThermoFisher 23017015, ˜5 mg/L in PBS, overnight at 37° C.). MEFs and Astrocytes were cultured in DMEM supplemented with 10% FBS and 1% Penicillin/Streptomycin.
2,000 cells were plated into each well of 96-well plates. About 3 hours later, cells were treated by 12M11, at 800-fold dilution (4 mM stock was diluted into 5 μM final concentration). Cells were further incubated for 4 days. CellTiter-Glo assay (Promega) was performed according to manufacturer's instructions, by adding 20 μL of reagent into each well. Luminescence signal was detected by the PolarStar plate reader (BMG Labtech). […] EC505 were calculated by GraphPad Prism6 software.

astrocytes = assay: Cytotox testing (CellTiter-Glo) in astrocytes; format: cell-based
Experimental: as §1
2,000 cells were plated into each well of 96-well plates. About 3 hours later, cells were treated by 12M11, at 800-fold dilution (4 mM stock was diluted into 5 μM final concentration). Cells were further incubated for 4 days. CellTiter-Glo assay (Promega) was performed according to manufacturer's instructions, by adding 20 μL of reagent into each well. Luminescence signal was detected by the PolarStar plate reader (BMG Labtech). Experiments were performed in quadruplicate, and results are presented with mean average −/+ standard deviation. EC505 were calculated by GraphPad Prism6 software.

[3] = test system: cancer cell lines (HeLa, DAOY, MCF7, 435 and HCC38 cells); assay: CellTiter-Glo cell viability in cancer cell lines; format: cell-based, human; settings: significant proportion of cell lines tested, excluding DAOY and MEF
Experimental: The activity of compound 12M11 was tested against a variety of cancer cell lines (see FIG. 2A), including those are routinely used in the literature such as HeLa, DAOY, MCF7, 435 and HCC38 cells. […] Just as for MEF cells, without wishing to be bound by any theory, it is believed that the resistance of DAOY cells to the OxyPhos inhibitor 12M11 can be attributed to their higher ATP levels per cell (FIG. 13B) combined with lower intrinsic OxyPhos activity as assessed by TMRE staining (FIG. 13C).

ATF4 = ATF4 western blot in Mut6 cells; format: cell-based, mouse
Experimental: Mut6 tumor cells and MEFs were treated by DMSO or 1 μM 12M11 for the indicated times. Cell lysate was prepared by RIPA buffer with phosphatase inhibitor (Thermo) and protease inhibitor (Roche). Antibodies are purchased from Santa Cruz (ATF4), Cell Signaling (pS6, S6, AMPK, and pAMPK), and Millipore (Gapdh).

Mut6 [4] = assay: OCR and ECAR measurement (Seahorse) in Mut6; format: cell-based, mouse
Experimental: (§2) Oxygen consumption rate (OCR) and extracellular acidification rate (ECAR) were measured by Seahorse Bioscience instrument (XF24) with 80-90% confluent cells, according to the manufacturer's protocol. Briefly, cells were equilibrated for 1 hr at 37° C. incubator lacking CO2. Oxygen concentration and pH in media were measured during sequential treatment with 12M11, Oligomycin (1 μM), FCCP (1 μM), and Rotenone (200 nM). A minimum of three wells were utilized per condition to calculate OCR and ECAR.

MEF [5] = assay: OCR and ECAR measurement (Seahorse) in MEF; format: cell-based, mouse
Experimental: as §2

Mut6 [6] = assay: Change in ATP levels in Mut6 cells; format: cell-based, mouse; settings: Mut6, 2-6 hr
Experimental: (§3) Mut6 tumor cells or MEFs were plated into 96-well plates. One day later, Oligomyin (2 μM), Rotenone (200 nM), or 12M11 (1 μM) were added into each well and then ATP levels were measured by Cell-Titer Glo (Promega) after 2 hr, 4 hr, or 6 hr incubation. Each data is mean of six replicates with ± standard deviation.

MEF [7] = assay: Change in ATP levels in MEF cells; format: cell-based, mouse; settings: 2-6 hr
Experimental: as §3

CCc1n(CC(=O)O[C@@H]2C[C@H](C)CC[C@H]2C(C)C)c2ccccc2[n+]1C.[Cl-] [Compound 12M11]
half-life at 2 μM [1]: 4 min
activity against MEF (MEF [2]): no to minimal effect; also recorded: no activity
activity against astrocytes (astrocytes): no to minimal effect; also recorded: no activity; also recorded: uniquely resistant
EC50 [3]: mid nanomolar to low micromolar range
ATF4 protein level (ATF4): activation
extracellular acidification rate (ECAR) (Mut6 [4]): dramatically increases
oxygen consumption rate (OCR) (Mut6 [4]): decrease
extracellular acidification (MEF [5]): do not increase acidification significantly
oxygen consumption rate (OCR) (MEF [5]): decrease
ATP levels (% change from basal) (Mut6 [6]): decrease significantly
ATP levels (% change from basal) (MEF [7]): increase
